System: 876862-298-R-J1-PDC complex spheroids, viability % test/control
Experiment: Anticancer human tumor 876862-298-R-J1-PDC patient-derived endometrial carcinoma cell line growth inhibition [CLK]
Details: for IC50: curve of first compound; for viability, T/C: stronger effect = lower value
Method in brief: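 Multi-cell-type spheroids combined patient-derived tumor cells with HUVEC endothelial cells and human mesenchymal stem cells. Paired agents were dosed in half-log steps down from about clinical Cmax, or from 10 microM where Cmax was unknown.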

[1] = second compound 0.0316 µM, first compound 0.0316 µM
[2] = second compound 0.0316 µM, first compound 0.1 µM
[3] = second compound 0.0316 µM, first compound 0.316 µM
[4] = second compound 0.0316 µM, first compound 1 µM
[5] = second compound 0.0316 µM, first compound 3.16 µM
[6] = second compound 0.0316 µM, first compound 10 µM
[7] = second compound 0.1 µM, first compound 0.0316 µM
[8] = second compound 0.1 µM, first compound 0.1 µM
[9] = second compound 0.1 µM, first compound 0.316 µM
[10] = second compound 0.1 µM, first compound 1 µM
[11] = second compound 0.1 µM, first compound 3.16 µM
[12] = second compound 0.1 µM, first compound 10 µM
[13] = second compound 0.316 µM, first compound 0.0316 µM
[14] = second compound 0.316 µM, first compound 0.1 µM
[15] = second compound 0.316 µM, first compound 0.316 µM
[16] = second compound 0.316 µM, first compound 1 µM
[17] = second compound 0.316 µM, first compound 3.16 µM
[18] = second compound 0.316 µM, first compound 10 µM
[19] = second compound 1 µM, first compound 0.0316 µM
[20] = second compound 1 µM, first compound 0.1 µM
[21] = second compound 1 µM, first compound 0.316 µM
[22] = second compound 1 µM, first compound 1 µM
[23] = second compound 1 µM, first compound 3.16 µM
[24] = second compound 1 µM, first compound 10 µM
[25] = second compound 3.16 µM, first compound 0.0316 µM
[26] = second compound 3.16 µM, first compound 0.1 µM
[27] = second compound 3.16 µM, first compound 0.316 µM
[28] = second compound 3.16 µM, first compound 1 µM
[29] = second compound 3.16 µM, first compound 3.16 µM
[30] = second compound 3.16 µM, first compound 10 µM
[31] = second compound 10 µM, first compound 0.0316 µM
[32] = second compound 10 µM, first compound 0.1 µM
[33] = second compound 10 µM, first compound 0.316 µM
[34] = second compound 10 µM, first compound 1 µM
[35] = second compound 10 µM, first compound 3.16 µM
[36] = second compound 10 µM, first compound 10 µM
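Note: spheroids exposed to drugs for 7 days before readout.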
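Throughout, for viability, T/C: 100% = DMSO vehicle control wells.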

With `COc1ccc([C@@H](O)c2cc(-c3ncnc4cc(N5CCOCC5)ccc34)c(F)cc2Cl)nn1` + CN1CCN(c2cc(C(=O)Nc3cc4cc(-c5cnn(C)c5)ccc4cn3)ccn2)CC1 the IC50 (second compound 0.0316 µM) was 4950 nM, the IC50 (second compound 0.1 µM) was under 31.6 nM and the IC50 (second compound 0.316 µM) was under 31.6 nM. It also gave an IC50 (second compound 1 µM) of under 31.6 nM, an IC50 (second compound 3.16 µM) of under 31.6 nM and an IC50 (second compound 10 µM) of under 31.6 nM. For the same molecule, the viability, T/C [1] was 93.3%, the viability, T/C [2] was 90% and the viability, T/C [3] was 86%. For the same molecule, the viability, T/C [4] was 84.2%, the viability, T/C [5] was 59.2% and the viability, T/C [6] was 35%. It also gave a viability, T/C [7] of 46.2%, a viability, T/C [8] of 43.4% and a viability, T/C [9] of 47%. The viability, T/C [10] was 42.8%, the viability, T/C [11] was 31.5% and the viability, T/C [12] was 21.1%. It also gave a viability, T/C [13] of 2.02%, a viability, T/C [14] of 2.01% and a viability, T/C [15] of 3%. It also gave a viability, T/C [16] of 2.2%, a viability, T/C [17] of 1.56% and a viability, T/C [18] of 2.98%. For the same molecule, the viability, T/C [19] was 0.64%, the viability, T/C [20] was 0.77% and the viability, T/C [21] was 0.64%. The viability, T/C [22] was 0.69%, the viability, T/C [23] was 0.55% and the viability, T/C [24] was 2.27%. It also gave a viability, T/C [25] of 1.08%, a viability, T/C [26] of 2.43% and a viability, T/C [27] of 1.6%. For the same molecule, the viability, T/C [28] was 1%, the viability, T/C [29] was 2.06% and the viability, T/C [30] was 1.3%. The viability, T/C [31] was 0.75%, the viability, T/C [32] was 0.99% and the viability, T/C [33] was 1.44%. It also gave a viability, T/C [34] of 1.58%, a viability, T/C [35] of 1.58% and a viability, T/C [36] of 1.69%.

Work on `COc1cccc2c1C(=O)c1c(O)c3c(c(O)c1C2=O)CC(O)(C(=O)CO)CC3OC1CC(N)C(O)C(C)O1` (centres undefined) + CN1CCN(c2cc(C(=O)Nc3cc4cc(-c5cnn(C)c5)ccc4cn3)ccn2)CC1 yielded an IC50 (second compound 0.0316 µM) of under 31.6 nM, an IC50 (second compound 0.1 µM) of under 31.6 nM and an IC50 (second compound 0.316 µM) of under 31.6 nM. For the same molecule, the IC50 (second compound 1 µM) was under 31.6 nM, the IC50 (second compound 3.16 µM) was under 31.6 nM and the IC50 (second compound 10 µM) was under 31.6 nM. The viability, T/C [1] was 31.7%, the viability, T/C [2] was 11.8% and the viability, T/C [3] was 7.2%. The viability, T/C [4] was 5.47%, the viability, T/C [5] was 0.87% and the viability, T/C [6] was 4.47%. For the same molecule, the viability, T/C [7] was 19.7%, the viability, T/C [8] was 11.4% and the viability, T/C [9] was 8.05%. For the same molecule, the viability, T/C [10] was 3.31%, the viability, T/C [11] was 1.71% and the viability, T/C [12] was 4.36%. It also gave a viability, T/C [13] of 1.75%, a viability, T/C [14] of 1.55% and a viability, T/C [15] of 1.57%. For the same molecule, the viability, T/C [16] was 0.79%, the viability, T/C [17] was 1.62% and the viability, T/C [18] was 3.91%. The viability, T/C [19] was 0.91%, the viability, T/C [20] was 0.64% and the viability, T/C [21] was 0.76%. For the same molecule, the viability, T/C [22] was 0.97%, the viability, T/C [23] was 1.41% and the viability, T/C [24] was 4.08%. For the same molecule, the viability, T/C [25] was 1.18%, the viability, T/C [26] was 1.91% and the viability, T/C [27] was 0.9%. The viability, T/C [28] was 0.76%, the viability, T/C [29] was 2.8% and the viability, T/C [30] was 3.09%. The viability, T/C [31] was 0.55%, the viability, T/C [32] was 0.59% and the viability, T/C [33] was 1.41%. It also gave a viability, T/C [34] of 0.97%, a viability, T/C [35] of 0.51% and a viability, T/C [36] of 1.61%.
